Experimental data: patent US20130150399A1, “INHIBITORS OF THE UNFOLDED PROTEIN RESPONSE AND METHODS FOR THEIR USE” (The Board of Trustees of the Leland Stanford Junior …, priority 2006, published 2013)

How the values were obtained:
[1] = system: Grp78; assay: Western immunoblot of Grp78, HT1080 cells; format: cell-based, human; settings: irestatin 9389 2.5 μM, 16 hours (also 24 or 36 hours)
Procedure: Cells (2×10^6) were cultured in 10-cm dishes, collected using a cell scraper at 4° C., and lysed by addition of 150 μl cell lysis buffer [50 mM Tris pH 7.4, 150 mM NaCl, 10% glycerol, 0.5% Triton X-100. 0.5% NP-40, 2 mM Na3VO4, 20 mM beta-glycerophosphate, 10 mM NaF, 1 mM DTT, 1 mM PMSF). Lysates were centrifuged for 5 min at 10,000×g, and proteins (˜40 μg) were resolved by SDS-PAGE followed by semi-dry transfer to nitrocellulose membranes. Membranes were blocked in TBS-5% milk supplemented with 0.1% Tween-20. The blots were then probed overnight with relevant antibodies, washed, and incubated for 2 hours with species-specific secondary antibodies conjugated to horseradish peroxidase. After washing in block solution, immunoreactive material was detected by enhanced chemiluminescence (SuperSignal West Dura Extended, Pierce, Inc., Rockville, Ill.).
HT1080 cells were exposed to DMSO vehicle (lane 1), irestatin 9389 (2.5 μM; lane 2) for 16 hours or Tm (5 μg/ml; lane 3) for 8 hours. Following treatments, cells were harvested, lysed, and analyzed by immunoblotting using anti-Grp78 antibody (top) or anti-actin (bottom) as a loading control. […] Cell lysates were analyzed by Western immunoblotting using anti-IRE1α (bottom) or anti-phospho-IRE1α antibodies (top). […] Lysates were analyzed by Western blot using antisera specific for phospho-JNK1 (top) or total JNK1 (bottom). […]

[2] = system: HT1080 tet-off Flag-XBP-1s cells; assay: Colony formation of HT1080 tet-off Flag-XBP-1s cells under hypoxia; format: cell-based, human; settings: 2.5 μM, hypoxia 48 hours
Procedure: A. Effect of irestatin 9389 on PERK and ATF6 pathways. HT1080 cells were treated with vehicle alone (lanes 1-4) or 2.5 μM irestatin 9389 (lanes 5-8) and cultured under aerobic conditions for 18 hours (N) or shifted to hypoxia for the indicated times. Protein lysates were analyzed by Western blot analysis using antisera specific for ATF6 (top), CHOP/GADD153 (middle) or actin (bottom). Arrow indicates the cleaved, transcriptionally active form of ATF6. B. Cleavage of caspase-3 in irestatin-treated cells under hypoxia. HT1080 cells were cultured in normoxia (N) or under hypoxia for 36 hours (H 36) in absence or presence of irestatin 9389 (2.5 μM). Arrows indicate proteolytically cleaved caspase-3. C. Colony formation assay. HT1080 cells were treated as in B under normoxia (N) or hypoxia for 48 hours (H 48). Cells were harvested, counted, and allowed to grow under normal culture conditions for 11-12 days. Colonies were visualized with crystal violet staining. D. Quantification of clonogenic survival assay. Values represent the mean+/−SEM from at least 4 independent experiments. E. TUNEL staining of cells treated as in C. F. Quantification of TUNEL-positive cells. Values represent the mean+/− SEM from at least 3 experiments. […] Cells were harvested at the indicated times and counted by hemocytometer. Values represent the mean calculated from triplicate experiments+/−SEM. […]

In the case of Cc1csc(NC(=O)CSc2nc3c(c(C(F)(F)F)c2C#N)CCC3)n1 [Compound 9389], the Grp78 levels [1] is reported as “no effect on Grp78 levels”, the decrease in viability ([2]; dox present (no Flag-XBP-1s)) is reported as ~60 fold and the “survival of hypoxic cells expressing Flag-XBP-1s” value ([2]; no dox) is reported as “minimal effect on the survival”.
